Data on twelve compounds can be found in patent publication US9650390B2, “Water-soluble taxane derivatives and uses thereof” (priority 2014, dated 2017).

In series [1] the test system is human non-small cell lung cancer NCI-H446. Description: Inhibitory activity of larotaxel and tesetaxel derivatives on subcutaneously xenografted tumor NCI-H446 in nude mice. The note with it: D0 IV; for T/C (%) D20 / Tumor volume (mm^3) (D20) / Tumor inhibitory percent (%) D20 / Tumor volume (mm^3) (D0): NCI-H446 xenograft in nude mice; for Tumor inhibitory percent (%) D20: P = 0.000 vs control; for Tumor volume (mm^3) (D0): baseline at grouping (D0); for Weight change (%) D5: nude mice. The source says: Human […] NCI-H446 cells were subcutaneously inoculated into nude mice.

Series [2] in a line: In vitro dissociation in blood plasma of rat. It counts as in vitro ADME, SD rats. The note with it: fresh SD rat plasma, 37° C.; for Sampling time/Dissociation percent (%) 2 min: 2 min incubation; for Sampling time/Dissociation percent (%) 5 min: 5 min incubation; for Sampling time/Dissociation percent (%) 10 min: 10 min incubation. On the procedure:
The obtained water soluble taxane derivatives of the following formulae were formulated as 0.2 mg/ml aqueous solutions. […] After 2 min, 5 min and 10 min of incubation, 0.2 ml of solutions were respectively taken from each of the samples, and added to acetonitrile (0.4 ml) cooled to −20° C. for precipitation of protein.

A short description of series [3]: In vitro dissociation in blood plasma of rabbit. Type of series: in vitro ADME, New Zealand white rabbits. Particulars: fresh New Zealand white rabbit plasma, 37° C. On the procedure:
The obtained water soluble taxane derivatives of the following formulae were formulated as 0.2 mg/ml aqueous solutions. […]

For series [4], the system named is human prostate cancer PC-3. Description: Inhibitory activity of cabazitaxel derivatives on subcutaneously xenografted tumor PC-3 in nude mice. Particulars: 13 mg/kg, D0 IV; for Weight change (%) D6: nude mice; for T/C (%) D20 / Tumor volume (mm^3) (D20) / Tumor inhibitory percent (%) D20 / Tumor volume (mm^3) (D0): PC-3 xenograft in nude mice; for Tumor inhibitory percent (%) D20: P = 0.000 vs control; for Tumor volume (mm^3) (D0): baseline at grouping (D0).
Text: Purpose: to evaluate and compare the inhibitory activity of the water soluble cabazitaxel derivatives and cabazitaxel on subcutaneously xenografted tumor of human prostate cancer PC-3 in nude mice.
Human prostate cancer PC-3 cells were subcutaneously inoculated into nude mice. After the tumor volume reached 100-150 mm^3, the animals were randomly divided into several groups, and administered with the water soluble cabazitaxel derivatives of the following formula and cabazitaxel, respectively once on the same day (D0). The tumor volume was measured 2-3 times per week, the animals were weighed and the data were recorded until day 20 (D20) after grouping.
The tumor volume (V) was calculated according to the equation: V=½×a×b^2, wherein a and b represent the length and the width, respectively.
T/C (%)=(T−T0)/(C−C0)×100, wherein T and C represent the tumor volume at the end of the experiment; and T0 and C0 represent the tumor volume at the beginning of the experiment.

Consider `CCN(CC)CCC(F)C(=O)OC(C(=O)OC1CC2(O)C(OC(=O)c3ccccc3)C3C(C)(CCC4OCC43OC(C)=O)C3OC(CN(C)C)OC3C(=C1C)C2(C)C)C(NC(=O)OC(C)(C)C)c1ncccc1F.Cl` [Compound C44, 2′-O-[4-N,N-diethylamino-2(S)-fluorobutyryl]tesetaxel hydrochloride], for which, in series [1] (12 mg/kg), the “T/C (%) D20” value is on record as −49%, the “Tumor volume (mm^3) (D20)” value is 41.3 ± 10.9 mm^3, the “Tumor inhibitory percent (%) D20” value was 123% and the “Tumor volume (mm^3) (D0)” value was determined as 113.6 ± 2.8 mm^3.
Turning to `CC(=O)O[C@@]12CO[C@@H]1CC[C@@]1(C)[C@@H]3O[C@H](CN(C)C)O[C@@H]3C3=C(C)[C@@H](OC(=O)[C@H](OC(=O)[C@H](F)CCN(C)C)[C@@H](NC(=O)OC(C)(C)C)c4ncccc4F)C[C@@](O)([C@@H](OC(=O)c4ccccc4)[C@@H]12)C3(C)C.Cl` [Compound C43, 2′-O-[4-N,N-dimethylamino-2(R)-fluorobutyryl]tesetaxel hydrochloride], in series [1] (12 mg/kg), the “T/C (%) D20” value is −61%, the “Tumor volume (mm^3) (D20)” value was 31.8 ± 11.1 mm^3, the “Tumor inhibitory percent (%) D20” value amounted to 153% and the “Tumor volume (mm^3) (D0)” value is 111.5 ± 2.2 mm^3.
Regarding `CO[C@H]1C(=O)[C@]2(C)[C@@H](OC)C[C@H]3OC[C@@]3(OC(C)=O)[C@H]2[C@H](OC(=O)c2ccccc2)[C@]2(O)C[C@H](OC(=O)[C@H](OC(=O)C(F)CCN(C)C)[C@@H](NC(=O)OC(C)(C)C)c3ccccc3)C(C)=C1C2(C)C.CS(=O)(=O)O` (stereo partly drawn) [Compound C9, 2′-O-[4-N,N-dimethylamino-2(R,S)-fluorobutyryl]cabazitaxel methanesulfonate], in series [2], the “Sampling time/Dissociation percent (%) 2 min” value turned out to be 49.3%, the “Sampling time/Dissociation percent (%) 5 min” value is on record as 88.6% and the “Sampling time/Dissociation percent (%) 10 min” value is reported as 100%. Moreover, in series [3], the “Sampling time/Dissociation percent (%) 2 min” value was found to be 81.2%, the “Sampling time/Dissociation percent (%) 5 min” value was 96.7% and the “Sampling time/Dissociation percent (%) 10 min” value is given as 100%. Further, in series [4], the “Weight change (%) D6” value was −14.4%, the “T/C (%) D20” value is recorded as −66%, the “Tumor volume (mm^3) (D20)” value is recorded as 32.5 ± 11.6 mm^3 and the “Tumor inhibitory percent (%) D20” value came out at 151%. The “Tumor volume (mm^3) (D0)” value in series [4] is given as 111.4 ± 2.3 mm^3.
On to `CC(=O)OC12COC1CCC1(C)C3OC(CN(C)C)OC3C3=C(C)C(OC(=O)C(OC(=O)C(CCN(C)C(C)C)C(F)(F)F)C(NC(=O)OC(C)(C)C)c4ncccc4F)CC(O)(C(OC(=O)c4ccccc4)C12)C3(C)C.O=C(O)CCC(=O)O` (mixture of isomers) [Compound C45, 2′-O-[4-N-methyl-N-isopropylamino-2(R,S)-2-trifluoromethylbutyryl]tesetaxel succinate], for which, in series [1] (12 mg/kg), the “Weight change (%) D5” value is −11.4%, the “T/C (%) D20” value is reported as −34%, the “Tumor volume (mm^3) (D20)” value is 53.4 ± 12.4 mm^3 and the “Tumor inhibitory percent (%) D20” value came to 85%. For the same compound, in series [1] (12 mg/kg), the “Tumor volume (mm^3) (D0)” value came out at 112.3 ± 3.1 mm^3.
For `CO[C@H]1C(=O)[C@]2(C)[C@@H](OC)C[C@H]3OC[C@@]3(OC(C)=O)[C@H]2[C@H](OC(=O)c2ccccc2)[C@]2(O)C[C@H](OC(=O)[C@H](OC(=O)[C@H](F)CCN(C)C)[C@@H](NC(=O)OC(C)(C)C)c3ccccc3)C(C)=C1C2(C)C.CS(=O)(=O)O` [Compound C7, 2′-O-[4-N,N-dimethylamino-2(R)-fluorobutyryl]cabazitaxel methanesulfonate], in series [2], the “Sampling time/Dissociation percent (%) 2 min” value was 49.7%, the “Sampling time/Dissociation percent (%) 5 min” value was found to be 88.9% and the “Sampling time/Dissociation percent (%) 10 min” value was 100%. In series [3], the “Sampling time/Dissociation percent (%) 2 min” value was 78.4%, the “Sampling time/Dissociation percent (%) 5 min” value was determined as 94.8% and the “Sampling time/Dissociation percent (%) 10 min” value is reported as 100%. Further, in series [4], the “Weight change (%) D6” value is listed as −14.2%, the “T/C (%) D20” value is reported as −67%, the “Tumor volume (mm^3) (D20)” value is on record as 31.5 ± 11.8 mm^3 and the “Tumor inhibitory percent (%) D20” value came to 154%. For the same compound, the “Tumor volume (mm^3) (D0)” value in series [4] is listed as 111.5 ± 2.2 mm^3.
Consider `CC(=O)O[C@H]1C(=O)[C@]23C[C@H]2C[C@H]2OC[C@@]2(OC(C)=O)[C@H]3[C@H](OC(=O)c2ccccc2)[C@]2(O)C[C@H](OC(=O)[C@H](O)[C@@H](NC(=O)OC(C)(C)C)c3ccccc3)C(C)=C1C2(C)C` [larotaxel, reference compound], for which, in series [1] (7 mg/kg), the “Weight change (%) D5” value is listed as −8.4%, the “T/C (%) D20” value was −64%, the “Tumor volume (mm^3) (D20)” value is recorded as 33.3 ± 12.4 mm^3 and the “Tumor inhibitory percent (%) D20” value is reported as 153%. In addition, in series [1] (7 mg/kg), the “Tumor volume (mm^3) (D0)” value stood at 110.9 ± 2.4 mm^3.
Consider `CC(=O)OC1C(=O)C23CC2CC2OCC2(OC(C)=O)C3C(OC(=O)c2ccccc2)C2(O)CC(OC(=O)C(OC(=O)C(CCN(C)C(C)C)C(F)(F)F)C(NC(=O)OC(C)(C)C)c3ccccc3)C(C)=C1C2(C)C.O=C(O)C=CC(=O)O` (mixture of isomers) [Compound C41, 2′-O-[4-N-methyl-N-isopropylamino-2(R,S)-2-trifluoromethylbutyryl]larotaxel maleate], for which, in series [1] (12 mg/kg), the “Weight change (%) D5” value is on record as −10.5%, the “T/C (%) D20” value is listed as −34%, the “Tumor volume (mm^3) (D20)” value was 51.7 ± 11.9 mm^3 and the “Tumor inhibitory percent (%) D20” value is on record as 67%. Moreover, the “Tumor volume (mm^3) (D0)” value in series [1] (12 mg/kg) is listed as 109.8 ± 2.9 mm^3.
Consider `CCN(C)CCC(F)C(=O)OC(C(=O)OC1CC2(O)C(OC(=O)c3ccccc3)C3C4(OC(C)=O)COC4CC4CC43C(=O)C(OC(C)=O)C(=C1C)C2(C)C)C(NC(=O)OC(C)(C)C)c1ccccc1.Cl` [Compound C40, 2′-O-[4-N-methyl-N-ethylamino-2(R,S)-fluorobutyryl]larotaxel hydrochloride], for which, in series [1] (12 mg/kg), the “Weight change (%) D5” value is −9.1%, the “T/C (%) D20” value is −51%, the “Tumor volume (mm^3) (D20)” value is recorded as 43.2 ± 12.7 mm^3 and the “Tumor inhibitory percent (%) D20” value was 122%. For the same compound, the “Tumor volume (mm^3) (D0)” value in series [1] (12 mg/kg) came out at 112.4 ± 1.8 mm^3.
Regarding `CO[C@H]1C(=O)[C@]2(C)[C@@H](OC)C[C@H]3OC[C@@]3(OC(C)=O)[C@H]2[C@H](OC(=O)c2ccccc2)[C@]2(O)C[C@H](OC(=O)[C@H](OC(=O)[C@@H](F)CCN(C)C)[C@@H](NC(=O)OC(C)(C)C)c3ccccc3)C(C)=C1C2(C)C.CS(=O)(=O)O` [Compound C8, 2′-O-[4-N,N-dimethylamino-2(S)-fluorobutyryl]cabazitaxel methanesulfonate], in series [2], the “Sampling time/Dissociation percent (%) 2 min” value amounted to 49.4%, the “Sampling time/Dissociation percent (%) 5 min” value came out at 88.4% and the “Sampling time/Dissociation percent (%) 10 min” value is reported as 100%. Besides, in series [3], the “Sampling time/Dissociation percent (%) 2 min” value was found to be 85.6%, the “Sampling time/Dissociation percent (%) 5 min” value came out at 94.5% and the “Sampling time/Dissociation percent (%) 10 min” value was determined as 100%. Also, in series [4], the “Weight change (%) D6” value is −14.4%, the “T/C (%) D20” value is reported as −66%, the “Tumor volume (mm^3) (D20)” value is given as 32.1 ± 12.1 mm^3 and the “Tumor inhibitory percent (%) D20” value was determined as 151%. In addition, the “Tumor volume (mm^3) (D0)” value in series [4] came out at 111.9 ± 2.0 mm^3.
For the compound `CC(=O)OC12COC1CCC1(C)C3OC(CN(C)C)OC3C3=C(C)C(OC(=O)C(OC(=O)C(F)CC(C)N4CCCC4)C(NC(=O)OC(C)(C)C)c4ncccc4F)CC(O)(C(OC(=O)c4ccccc4)C12)C3(C)C.O=S(=O)(O)O` (mixture of isomers) [Compound C46, 2′-O-[4-(pyrrolidin-1-yl)amino-2(R,S)-fluorovaleryl]tesetaxel sulfate], in series [1] (12 mg/kg), the “T/C (%) D20” value was −23%, the “Tumor volume (mm^3) (D20)” value came to 61.2 ± 14.2 mm^3, the “Tumor inhibitory percent (%) D20” value amounted to 58% and the “Tumor volume (mm^3) (D0)” value came out at 111.7 ± 2.8 mm^3.
On to `CC(=O)O[C@@]12CO[C@@H]1CC[C@@]1(C)[C@@H]3O[C@H](CN(C)C)O[C@@H]3C3=C(C)[C@@H](OC(=O)[C@H](O)[C@@H](NC(=O)OC(C)(C)C)c4ncccc4F)C[C@@](O)([C@@H](OC(=O)c4ccccc4)[C@@H]12)C3(C)C` [tesetaxel, reference compound], for which, in series [1] (8 mg/kg), the “T/C (%) D20” value is listed as −58%, the “Tumor volume (mm^3) (D20)” value amounted to 33.7 ± 12.1 mm^3, the “Tumor inhibitory percent (%) D20” value is reported as 146% and the “Tumor volume (mm^3) (D0)” value is 112.8 ± 2.2 mm^3.
On to `CC(=O)O[C@H]1C(=O)[C@]23C[C@H]2C[C@H]2OC[C@@]2(OC(C)=O)[C@H]3[C@H](OC(=O)c2ccccc2)[C@]2(O)C[C@H](OC(=O)[C@H](OC(=O)[C@H](F)CCN(C)C)[C@@H](NC(=O)OC(C)(C)C)c3ccccc3)C(C)=C1C2(C)C.Cl` [Compound C39, 2′-O-[4-N,N-dimethylamino-2(R)-fluorobutyryl]larotaxel hydrochloride], for which, in series [1] (12 mg/kg), the “Weight change (%) D5” value is recorded as −8.5%, the “T/C (%) D20” value is given as −62%, the “Tumor volume (mm^3) (D20)” value is reported as 34.9 ± 13.3 mm^3 and the “Tumor inhibitory percent (%) D20” value is 148%. Further, the “Tumor volume (mm^3) (D0)” value in series [1] (12 mg/kg) is listed as 111.5 ± 2.2 mm^3.
